Key:
[1] = tested on: NOD-SCID-IL2Rγc null (NSG) mice; assay: In vivo toxicity in NSG mice, 2 weeks, with and without dT; settings: mouse models, 80 mg/kg twice/day
Description: To evaluate the in vivo toxicity selected compounds were injected by intraperitoneal (IP) route to 7 weeks-old male Swiss mice (n = 2) at 10, 20, 40, 50, or 80 mg/kg by unique injection. […] Compounds were administered in their hydrochloride salt forms. Mice were then observed closely for the next one hour, then every hour for 8 h. Observations were continued for 72 h for signs of pain or toxicity such as change in the behavior and in the activity in the cage (decreased locomotion) or change in the appearance (curved back, eyes half-closed, bristle hair, hips hollowed out). In vivo toxicity of compound OR0642 at 40 and 80 mg/kg was also assessed in the NOD-SCID-IL2Rγc null (NSG) mice model for 2 weeks in the presence and absence of dT to confirm the safety of the compound. […]. Blood samples were collected and spun at 10,000 × g prior to collecting the plasma supernatants. All plasma samples were frozen at −80 °C before sample processing. 13 μl of each plasma sample was mixed with 33 μl of acetonitrile to precipitate proteins and extract the compound. […] Supernatants were transferred to a microplate to be analyzed by LC–MS/MS. All samples were analyzed with a UHPLC coupled to a Shimadzu LC-MS 8030 triple quadrupole. The solutions of a standard range, prepared with plasma from untreated mice, were analyzed in the same series of injections.

PDX UPNT775 = assay: Ex vivo testing on PDX samples (viability, flow cytometry, 72 h); assay type: cell-based, human
Text: (§1) Bone marrow-infiltrating blasts from terminally mice bearing PDX as stated above were collected as established before. Extensive analysis (immunophenotype and molecular analysis) of matched primary and PDX samples used in the study are shown in Supplementary Table 7, showing that they remain stable. Briefly, after euthanasia, bone marrows from tibiae, hips, femurs, and vertebrae were isolated and blasts collected for subsequent ex vivo experiments. All samples used contained ≥90% blasts as determined by flow cytometry. For the cytotoxic evaluation of OR0642, blasts were then stained with CellTraceTM Violet (CTV, Thermo Fisher Scientific, C34557) prior seeding at 10,000 cells into 96-well plates under normal conditions or pre-plated with OP9-DL1 cells. Cells were cultured in RPMI 1640 supplemented with 20% fetal bovine serum, 50 µg/ml streptomycin, 50 UI penicillin, 4 mM L-glutamine, and a cocktail of human cytokines as previously established (50 ng/ml human stem cell factor, 20 ng/ml hFLT3-L, 10 ng/ml hIL-7 and 20 nM insulin (Miltenyi Biotec))[28]. […] Rescue by dC supplementation (1 µM) was also evaluated. OR0642 was then tested alone, or combined with dT or dT + dC at two concentrations (0.25 and 0.5 µM). Cell viability was evaluated by flow cytometry 72 h post-treatment. Proliferation indexes were calculated using the detection of CTV in the control replicates (DMSO) and the proliferation modeling tool of FlowJo™ Software 10.7.1 (BD Life Sciences). A control peak of undivided CTV-stained cells was systematically used to set the undivided fraction.

PDX UPNT885 = assay: as above; assay type: cell-based, human
Text: as §1

PDX UPNT615 = assay: as above; assay type: cell-based, human
Text: as §1

PDX UPNTAGG = assay: as above; assay type: cell-based, human
Text: as §1

PDX UPNT525 = assay: as above; assay type: cell-based, human
Text: as §1

PDX UPNT380 = assay: as above; assay type: cell-based, human
Text: as §1

**Q.** For CCCN(c1nc(-c2nc(N)cc(N)n2)cs1)c1cc(-c2ccc(S(=O)(=O)N3CCN(C)CC3)cc2C(F)(F)F)ccc1C [OR0642], which in vivo tolerance [1] is on record?
**A.** well tolerated

**Q.** What does the source list for Cc1cn([C@H]2C[C@H](O)[C@@H](CO)O2)c(=O)[nH]c1=O [dT, thymidine]?
**A.** viability at 12 µM (PDX UPNT775; Homo sapiens, UPNT775, dT 12 µM, read-out: Cell viability, Mean (% viab)): 100%; viability at 37 µM (PDX UPNT775; Homo sapiens, UPNT775, dT 37 µM, read-out: Cell viability, Mean (% viab)): 86.3%; viability at 111 µM (PDX UPNT775; Homo sapiens, UPNT775, dT 111 µM, read-out: Cell viability, Mean (% viab)): 53.9%; viability at 333 µM (PDX UPNT775; Homo sapiens, UPNT775, dT 333 µM, read-out: Cell viability, Mean (% viab)): 40.5%; viability at 1000 µM (PDX UPNT775; Homo sapiens, UPNT775, dT 1000 µM, read-out: Cell viability, Mean (% viab)): 36%; viability at 3000 µM (PDX UPNT775; Homo sapiens, UPNT775, dT 3000 µM, read-out: Cell viability, Mean (% viab)): 36.7%; Response at dT100 µM (PDX UPNT775; PDX 775, dT 100 µM): 63; viability at 12 µM (PDX UPNT885; Homo sapiens, UPNT885, dT 12 µM, read-out: Cell viability, Mean (% viab)): 100%; viability at 37 µM (PDX UPNT885; Homo sapiens, UPNT885, dT 37 µM, read-out: Cell viability, Mean (% viab)): 85.3%; viability at 111 µM (PDX UPNT885; Homo sapiens, UPNT885, dT 111 µM, read-out: Cell viability, Mean (% viab)): 65.1%; viability at 333 µM (PDX UPNT885; Homo sapiens, UPNT885, dT 333 µM, read-out: Cell viability, Mean (% viab)): 49.5%; viability at 1000 µM (PDX UPNT885; Homo sapiens, UPNT885, dT 1000 µM, read-out: Cell viability, Mean (% viab)): 44.3%; viability at 3000 µM (PDX UPNT885; Homo sapiens, UPNT885, dT 3000 µM, read-out: Cell viability, Mean (% viab)): 39.5%; Response at dT100 µM (PDX UPNT885; PDX 885, dT 100 µM): 49; viability at 12 µM (PDX UPNT615; Homo sapiens, UPNT615, dT 12 µM, read-out: Cell viability, Mean (% viab)): 100%; viability at 37 µM (PDX UPNT615; Homo sapiens, UPNT615, dT 37 µM, read-out: Cell viability, Mean (% viab)): 84.7%; viability at 111 µM (PDX UPNT615; Homo sapiens, UPNT615, dT 111 µM, read-out: Cell viability, Mean (% viab)): 78.6%; viability at 333 µM (PDX UPNT615; Homo sapiens, UPNT615, dT 333 µM, read-out: Cell viability, Mean (% viab)): 73.6%; viability at 1000 µM (PDX UPNT615; Homo sapiens, UPNT615, dT 1000 µM, read-out: Cell viability, Mean (% viab)): 67.2%; viability at 3000 µM (PDX UPNT615; Homo sapiens, UPNT615, dT 3000 µM, read-out: Cell viability, Mean (% viab)): 66.7%; Response at dT100 µM (PDX UPNT615; PDX 615, dT 100 µM): 31; viability at 12 µM (PDX UPNTAGG; Homo sapiens, UPNTAGG, dT 12 µM, read-out: Cell viability, Mean (% viab)): 100%; viability at 37 µM (PDX UPNTAGG; Homo sapiens, UPNTAGG, dT 37 µM, read-out: Cell viability, Mean (% viab)): 87.6%; viability at 111 µM (PDX UPNTAGG; Homo sapiens, UPNTAGG, dT 111 µM, read-out: Cell viability, Mean (% viab)): 82.2%; viability at 333 µM (PDX UPNTAGG; Homo sapiens, UPNTAGG, dT 333 µM, read-out: Cell viability, Mean (% viab)): 73.3%; viability at 1000 µM (PDX UPNTAGG; Homo sapiens, UPNTAGG, dT 1000 µM, read-out: Cell viability, Mean (% viab)): 65.7%; viability at 3000 µM (PDX UPNTAGG; Homo sapiens, UPNTAGG, dT 3000 µM, read-out: Cell viability, Mean (% viab)): 58.6%; Response at dT100 µM (PDX UPNTAGG; PDX AGG, dT 100 µM): 38; viability at 37 µM (PDX UPNT525; Homo sapiens, UPNT525, dT 37 µM, read-out: Cell viability, Mean (% viab)): 99.5%; viability at 111 µM (PDX UPNT525; Homo sapiens, UPNT525, dT 111 µM, read-out: Cell viability, Mean (% viab)): 67.8%; viability at 333 µM (PDX UPNT525; Homo sapiens, UPNT525, dT 333 µM, read-out: Cell viability, Mean (% viab)): 44.3%; viability at 1000 µM (PDX UPNT525; Homo sapiens, UPNT525, dT 1000 µM, read-out: Cell viability, Mean (% viab)): 30.6%; viability at 3000 µM (PDX UPNT525; Homo sapiens, UPNT525, dT 3000 µM, read-out: Cell viability, Mean (% viab)): 24.9%; Response at dT100 µM (PDX UPNT525; PDX 525, dT 100 µM): 44; viability at 12 µM (PDX UPNT380; Homo sapiens, UPNT380, dT 12 µM, read-out: Cell viability, Mean (% viab)): 100%; viability at 37 µM (PDX UPNT380; Homo sapiens, UPNT380, dT 37 µM, read-out: Cell viability, Mean (% viab)): 85.4%; viability at 111 µM (PDX UPNT380; Homo sapiens, UPNT380, dT 111 µM, read-out: Cell viability, Mean (% viab)): 79.4%; viability at 333 µM (PDX UPNT380; Homo sapiens, UPNT380, dT 333 µM, read-out: Cell viability, Mean (% viab)): 76.9%; viability at 1000 µM (PDX UPNT380; Homo sapiens, UPNT380, dT 1000 µM, read-out: Cell viability, Mean (% viab)): 70.3%; viability at 3000 µM (PDX UPNT380; Homo sapiens, UPNT380, dT 3000 µM, read-out: Cell viability, Mean (% viab)): 67.7%; Response at dT100 µM (PDX UPNT380; PDX 380, dT 100 µM): 27
